Laboratory results: publication PMC6320914 (Pharmaceutics, 2018)
Entries after “also recorded” stand apart in the source; their conditions may differ. Square brackets hold non-standard residues; d marks the D form. Peptide text beside a SMILES is read from it. * marks the point of attachment. Daunorubicin(13-NOCH2CO) = COc1cccc2c1C(=O)c1c(O)c3c(c(O)c1C2=O)C[C@@](O)(C(C)=NOCC(=O)*)C[C@@H]3O[C@H]1C[C@H](N)[C@H](O)[C@H](C)O1; pGlu = O=C1CC[C@@H](C(=O)O)N1; Butyryl = CCCC(=O)*

Columns and labels:
[1] = system: HT-29 human colon cancer cells; assay type: cell-based; conditions: 24 h treatment in serum-free medium (0.068–150 µM), then 48 h in complete medium; alamarBlue fluorescence; mean ± SE, performed twice, four parallels
Experimental: (§1) Dulbecco’s Modified Eagle Medium (DMEM, Lonza, Basel, Switzerland), supplemented with 10% (v/v) Fetal Bovine Serum (FBS, Lonza), L-glutamine (2 mM, Lonza), non-essential amino acids (NEAA, Sigma-Aldrich Kft), sodium pyruvate (1 mM, Lonza) and Penicillin-Streptomycin (Lonza) was used to culture MCF-7 human breast adenocarcinoma cells (ATCC:HTB-22). HT-29 human colon adenocarcinoma cells (ATCC:HTB-38) were maintained in RPMI-1640 (Lonza), supplied with 10% FBS, L-glutamine and Penicillin-Streptomycin. MDA-MB-231 breast adenocarcinoma cells were cultured in DMEM (Lonza), supplemented with 10% FBS and Penicillin-Streptomycin. Cells were maintained in plastic culture dishes at 37 °C with a humidified atmosphere containing 5% CO2/95% air.
(§2) 5 × 10^3 cells per well were seeded to 96-well plates (Sarstedt, Nümbrecht, Germany), in a complete cell medium. After 24 h, the cells were treated with bioconjugates in a serum-free medium (concentration range 0.068–150 µM, control wells were treated with a serum-free medium). On the next day, cells were washed two times with a serum-free medium and incubated in a complete medium for 48 h. The cell viability was determined using alamarBlue reagent® (ThermoFisher Scientific) by following the manufacturer’s instructions. A Synergy H4 multi-mode microplate reader (BioTek, Winooski, VT, USA) was used for fluorescence detection (λEx = 570 and at λEM = 620 nm). Experiments were performed twice, using four parallels per concentration. Cell viabilities (and IC50 values) were calculated with Origin Pro8 (OriginLab Corp., Northampton, MA, USA.) using a nonlinear regression (sigmoidal dose–response).

[2] = system: MCF-7 human breast cancer cells; assay type: cell-based; conditions: 24 h treatment in serum-free medium (0.068–150 µM), then 48 h in complete medium; alamarBlue fluorescence; mean ± SE, performed twice, four parallels
Experimental: as §1, §2

[3] = system: MDA-MB-231 human breast cancer cells; assay type: cell-based; conditions: 24 h treatment in serum-free medium (0.068–150 µM), then 48 h in complete medium; alamarBlue fluorescence; mean ± SE, performed twice, four parallels
Experimental: as §1, §2

[4] = target: T1, GnRH-RI expressed on human prostate cancer (Homo sapiens, UniProt P30968); set-up: method as in PMID 10647698, PMID 20859992; conditions: concentrations up to 1 µM; cited from earlier work
T1 construct: Tissue samples of human prostate cancer cells were obtained from a patient at the time of initial surgical treatment; from tissue; host or cells: human prostate cancer surgical specimen, cell membrane homogenate
T1 sequence (P30968 1-328): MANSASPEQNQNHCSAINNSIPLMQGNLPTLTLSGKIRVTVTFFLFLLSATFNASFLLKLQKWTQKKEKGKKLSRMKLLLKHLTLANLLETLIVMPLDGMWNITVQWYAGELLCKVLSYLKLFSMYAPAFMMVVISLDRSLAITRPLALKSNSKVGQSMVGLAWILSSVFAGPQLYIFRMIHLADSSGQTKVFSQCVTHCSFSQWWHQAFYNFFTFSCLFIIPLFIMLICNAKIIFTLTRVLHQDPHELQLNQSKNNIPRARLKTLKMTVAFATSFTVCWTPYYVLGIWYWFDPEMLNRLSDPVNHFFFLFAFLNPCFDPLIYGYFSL

[5] = target: T1, GnRH-RI expressed on human prostate cancer; experiment: Radioligand competition with [125I]-triptorelin, human prostate cancer membranes; assay type: binding; conditions: membrane fractions of human prostate cancer specimens, Figure 5
Experimental: Ligand competition assays with radiolabeled triptorelin were performed to evaluate the binding affinity of K2 and 10 to GnRH-RI expressed on human pituitary and human prostate cancer cells as reported earlier. Tissue samples of human prostate cancer cells were obtained from a patient at the time of initial surgical treatment and normal human pituitary tissue (anterior lobe) derived by autopsy. All subjects gave their informed consent for inclusion before they participated in the study. The collection and the use of these specimens for our studies were conducted in accordance with the Declaration of Helsinki and approved by the local Institutional Ethics Committee (UD REC/IEC 4831-2017). To study the binding affinity of the compounds, cell membrane homogenates were prepared as previously described. Apart from that, triptorelin was radioiodinated using the chloramine-T method, followed by purification by RP-HPLC [34, 40, 41, 44]. To determine the binding affinities of the nonradio-labeled GnRH-III bioconjugates to GnRH-RI, the displacement of [^125I]-GnRH-I-[^6D-Trp] was studied by an in vitro ligand competition assay. […] To determine the protein concentration by the method of Bradford, a Bio-Rad protein assay kit (Bio-Rad Laboratories, USA) was used. The LIGAND-PC computerized curve-fitting program of Munson and Rodbard was used to determine the receptor binding characteristics and IC50 values.

[6] = 90% human plasma; conditions: 37 °C, up to 24 h
[7] = rat liver lysosomal homogenate in 0.2 M NH4OAc buffer (pH 5); conditions: 37 °C, up to 24 h

Compound: CCCC(=O)NCCCC[C@H](NC(=O)[C@H](Cc1c[nH]c2ccccc12)NC(=O)[C@H](Cc1c[nH]cn1)NC(=O)[C@@H]1CCC(=O)N1)C(=O)N[C@@H](Cc1c[nH]cn1)C(=O)N[C@@H](CC(=O)O)C(=O)N[C@@H](Cc1c[nH]c2ccccc12)C(=O)N[C@@H](CCCCNC(=O)CON=C(C)[C@]1(O)Cc2c(O)c3c(c(O)c2[C@@H](O[C@H]2C[C@H](N)[C@H](O)[C@H](C)O2)C1)C(=O)c1c(OC)cccc1C3=O)C(=O)N1CCC[C@H]1C(=O)NCC [compound 14] ([pGlu]HWK(Butyryl)HDWK(Daunorubicin(13-NOCH2CO))P-NHEt)
- IC50 [1]: 17.84 ± 0.08 µM
- IC50 [2]: 2.23 ± 0.4 µM
- IC50 [3]: 12.4 ± 2.3 µM

Compound: somatostatin-14
- displacement of triptorelin [4]: not able to displace triptorelin

Compound: epidermal growth factor
- displacement of [125I]-GnRH-I-[6D-Trp] binding [5]: did not displace the radioligand

Compound: human growth hormone
- displacement of [125I]-GnRH-I-[6D-Trp] binding [5]: did not displace the radioligand

Compound: bombesin
- displacement of triptorelin [4]: not able to displace triptorelin

Compound: <EHWK(Bu)HDWK(Dau=Aoa)PG-NH2
- not cleaved [6]: stable for at least 24 h
- cleaved bond [7]: Pro9-Gly10; also recorded: His2-Trp3; also recorded: Trp3-Lys(Bu)4; also recorded: Lys(Bu)4-His5, first_seen, 5 min; also recorded: His5-Asp6; also recorded: Asp6-Trp7; also recorded: Trp7-Lys(Dau=Aoa)8; also recorded: Lys(Dau=Aoa)8-Pro9

Compound: somatostatin [reference compound]
- displacement of [125I]-GnRH-I-[6D-Trp] binding [5]: did not displace the radioligand

Compound: <E-D-Tic-K(Bu)HDWK(Dau=Aoa)PG-NH2
- not cleaved [6]: stable for at least 24 h
- cleaved bond [7]: Lys(Bu)4-His5; also recorded: His5-Asp6; also recorded: Asp6-Trp7; also recorded: Trp7-Lys(Dau=Aoa)8; also recorded: Lys(Dau=Aoa)8-Pro9; also recorded: Pro9-Gly10
- fragment found [7]: <E-D-Tic-K(Bu)HDWK(Dau=Aoa)-OH; also recorded: <E-D-Tic-K(Bu)HD-OH; also recorded: <E-D-Tic-K(Bu)H-OH; also recorded: H-K(Dau=Aoa)P-OH; also recorded: H-Lys(Dau=Aoa)-OH, 1 h
